Experiments:
D(4) dopamine receptor = target: T1, D(4) dopamine receptor (Homo sapiens, UniProt P21917); assay: DRUGMATRIX: Dopamine D4.2 radioligand binding (ligand: [3H] Spiperone); assay type: cell membranes, CHO-K1, Membrane; conditions: cho-k1, Not Active = under 50% inhibition at 10 µM
T1 sequence (P21917 whole entry): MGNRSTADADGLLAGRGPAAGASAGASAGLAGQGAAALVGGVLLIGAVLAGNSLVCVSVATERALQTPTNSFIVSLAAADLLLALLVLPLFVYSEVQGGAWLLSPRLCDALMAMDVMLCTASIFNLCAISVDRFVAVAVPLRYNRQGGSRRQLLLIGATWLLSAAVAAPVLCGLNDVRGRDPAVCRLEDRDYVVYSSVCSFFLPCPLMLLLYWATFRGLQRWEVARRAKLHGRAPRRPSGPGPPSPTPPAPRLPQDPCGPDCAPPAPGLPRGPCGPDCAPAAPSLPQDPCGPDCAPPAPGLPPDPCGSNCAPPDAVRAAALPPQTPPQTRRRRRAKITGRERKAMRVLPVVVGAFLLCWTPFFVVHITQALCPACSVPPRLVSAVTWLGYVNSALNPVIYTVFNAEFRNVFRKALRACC

[1] = target: Epidermal growth factor receptor (Homo sapiens, UniProt P00533); assay: DRUGMATRIX: Protein Tyrosine Kinase, EGF Receptor enzyme inhibition (substrate: Poly(Glu:Tyr)); assay type: cell-based, Insect cells; conditions: Not Active = under 50% inhibition at 10 µM
[2] = DRUGMATRIX: Purinergic P2X radioligand binding (ligand: [3H] alpha, beta-Methylene-ATP); assay type: cell membranes, Oryctolagus cuniculus, New Zealand albino, Urinary bladder, Membrane; conditions: Not Active = under 50% inhibition at 10 µM
Melanocortin receptor 4 = Melanocortin receptor 4 (Homo sapiens, UniProt P32245); assay type: cell membranes, HEK293, Membrane; conditions: hek293; note: in other assays of this panel Not Active means under 50% inhibition at 10 µM
Glycine receptor = Glycine receptor (Rattus norvegicus, UniProt P22771+P24524+P07727+P20781); assay type: cell membranes, Wistar, Spinal cord, Membrane; note: in other assays of this panel Not Active means under 50% inhibition at 10 µM
[3] = target: T2, Muscarinic acetylcholine receptor M2 (Homo sapiens, UniProt P08172); assay type: cell membranes, CHO-K1, Membrane; conditions: cho-k1; note: in other assays of this panel Not Active means under 50% inhibition at 10 µM
T2 sequence (P08172 whole entry): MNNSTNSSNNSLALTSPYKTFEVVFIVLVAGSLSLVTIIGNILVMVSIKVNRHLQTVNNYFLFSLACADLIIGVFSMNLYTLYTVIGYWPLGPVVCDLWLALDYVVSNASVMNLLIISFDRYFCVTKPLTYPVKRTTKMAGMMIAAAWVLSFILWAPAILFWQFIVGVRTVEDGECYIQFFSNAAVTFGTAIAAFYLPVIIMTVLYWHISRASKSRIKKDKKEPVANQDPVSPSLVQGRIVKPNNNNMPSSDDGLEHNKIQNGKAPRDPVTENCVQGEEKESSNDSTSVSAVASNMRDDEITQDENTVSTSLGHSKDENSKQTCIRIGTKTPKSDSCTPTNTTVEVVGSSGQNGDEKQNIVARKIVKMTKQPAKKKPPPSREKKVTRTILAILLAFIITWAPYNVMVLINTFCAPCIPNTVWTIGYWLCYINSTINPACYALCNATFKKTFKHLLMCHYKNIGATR

Sequence of Melanocortin receptor 4 (P32245 whole entry): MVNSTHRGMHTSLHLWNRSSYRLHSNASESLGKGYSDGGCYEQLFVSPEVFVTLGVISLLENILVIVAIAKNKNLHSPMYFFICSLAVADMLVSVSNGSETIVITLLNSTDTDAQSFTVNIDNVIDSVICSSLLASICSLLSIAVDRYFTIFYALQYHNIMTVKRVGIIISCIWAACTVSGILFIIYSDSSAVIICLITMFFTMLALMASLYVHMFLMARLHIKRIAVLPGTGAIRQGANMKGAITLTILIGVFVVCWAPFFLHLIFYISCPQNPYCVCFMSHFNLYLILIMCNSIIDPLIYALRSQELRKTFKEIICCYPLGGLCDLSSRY

Compound	IC50 (D(4) dopamine receptor)	IC50 ([1]; insect cells)	IC50 [2]	Ki [2]	IC50 (Melanocortin receptor 4)	IC50 (Glycine receptor)	IC50 [3]	IC50 ([1]; read-out: IC50) [nM]	Ki (D(4) dopamine receptor; read-out: Ki) [nM]	Ki ([1]; insect cells)	Ki (Melanocortin receptor 4)	Ki (Glycine receptor)	Ki [3]	Ki (D(4) dopamine receptor)	IC50 (Melanocortin receptor 4; read-out: IC50) [nM]	Ki (Melanocortin receptor 4; read-out: Ki) [nM]
C[C@@H]1O[C@@H](O[C@@H]2C=C3CC[C@@H]4[C@H](CC[C@]5(C)[C@@H](c6ccc(=O)oc6)CC[C@]45O)[C@@]3(C)CC2)[C@H](O)[C@H](O)[C@H]1O [PROSCILLARIDIN]	Not Active	Not Active	Not Active	Not Active	Not Active	Not Active	Not Active									
Oc1cccc(O)c1O [PYROGALLOL]	Not Active		Not Active	Not Active	Not Active	Not Active	Not Active	1230								
AURANOFIN		Not Active	Not Active	Not Active	Not Active	Not Active	Not Active		394	Not Active	Not Active	Not Active	Not Active			
GADOPENTETATE DIMEGLUMINE	Not Active	Not Active	Not Active	Not Active	Not Active	Not Active	Not Active			Not Active	Not Active	Not Active	Not Active	Not Active		
GENTAMICIN	Not Active	Not Active	Not Active	Not Active	Not Active	Not Active	Not Active			Not Active	Not Active	Not Active	Not Active	Not Active		
GRAMICIDIN	Not Active	Not Active	Not Active	Not Active		Not Active	Not Active			Not Active		Not Active	Not Active	Not Active	3310	3190
NYSTATIN	Not Active	Not Active	Not Active	Not Active	Not Active	Not Active	Not Active			Not Active	Not Active	Not Active	Not Active	Not Active		
